Experimental data reported in the CheMixHub viscosity set.
Several values for one entry are separate records, joined by “and”; a condition that tells them apart may be missing. Equal values may be shown once. ± gives the uncertainty stated by the source.

Assay: xn = mol fraction of the nth substance listed

SMILES: C[N+](C)(C)CCO.[Cl-] + OCCO
- viscosity (293.15 K, 100 kPa, x1 = 0.333): 40.01 ± 0.53 mPa·s
- viscosity (293.15 K, 100 kPa, x1 = 0.34): 59.14 ± 2.4 mPa·s
- viscosity (293.15 K, 101 kPa, x1 = 0.333): 42.3 ± 3.4 mPa·s
- viscosity (293.15 K, 101 kPa, x2 = 0.7): 56.22 ± 1.2 mPa·s
- viscosity (293.15 K, 101.3 kPa, x2 = 0.6675): 60 ± 2.5 mPa·s
- viscosity (293.15 K, 101.3 kPa, x2 = 0.7): 53.07 ± 0.32 mPa·s
- viscosity (293.15 K, 101.3 kPa, x2 = 0.7499): 37.35 ± 1.6 mPa·s
- viscosity (293.15 K, 101.3 kPa, x2 = 0.7999): 31.8 ± 1.3 mPa·s
- viscosity (293.15 K, 101.3 kPa, x2 = 0.8332): 28.49 ± 1.2 mPa·s
- viscosity (293.15 K, 101.3 kPa, x2 = 0.8571): 25.56 ± 1.1 mPa·s
- viscosity (298 K, 100 kPa, x1 = 0.333): 45.1 ± 3.7 mPa·s
- viscosity (298 K, 101 kPa, x1 = 0.333): 42 ± 3 mPa·s
- viscosity (298.15 K, 100 kPa, x1 = 0.333): 41 ± 1 mPa·s and 32.73 ± 0.44 mPa·s
- viscosity (298.15 K, 100 kPa, x1 = 0.34): 47.74 ± 1.9 mPa·s
- viscosity (298.15 K, 101 kPa, x1 = 0.2): 20.1 ± 0.8 mPa·s
- viscosity (298.15 K, 101 kPa, x1 = 0.333): 35.1 ± 1.4 mPa·s
- viscosity (298.15 K, 101.1 kPa, x1 = 0.333): 39.45 ± 8.3 mPa·s
- viscosity (298.15 K, 101.3 kPa, x2 = 0.6675): 48.59 ± 2 mPa·s
- viscosity (298.15 K, 101.3 kPa, x2 = 0.7): 43.03 ± 0.49 mPa·s
- viscosity (298.15 K, 101.3 kPa, x2 = 0.7499): 31.12 ± 1.3 mPa·s
- viscosity (298.15 K, 101.3 kPa, x2 = 0.7999): 26.21 ± 1.1 mPa·s
- viscosity (298.15 K, 101.3 kPa, x2 = 0.8332): 23.36 ± 0.97 mPa·s
- viscosity (298.15 K, 101.3 kPa, x2 = 0.8571): 20.93 ± 0.87 mPa·s
- viscosity (298.15 K, 101.33 kPa, x2 = 0.7): 48 ± 5 mPa·s
- viscosity (298.2 K, 101.3 kPa, x1 = 0.1247): 20.5 ± 0.8 mPa·s
- viscosity (298.2 K, 101.3 kPa, x1 = 0.1675): 23.2 ± 0.9 mPa·s
- viscosity (298.2 K, 101.3 kPa, x1 = 0.2): 24.5 ± 1 mPa·s
- viscosity (298.2 K, 101.3 kPa, x1 = 0.2513): 27.2 ± 1.1 mPa·s
- viscosity (303 K, 100 kPa, x1 = 0.333): 36.8 ± 3 mPa·s
- viscosity (303 K, 101 kPa, x1 = 0.3333): 51.8 ± 1.5 mPa·s
- viscosity (303.15 K, 100 kPa, x1 = 0.333): 27.13 ± 0.36 mPa·s and 52.15 ± 2.1 mPa·s
- viscosity (303.15 K, 100 kPa, x1 = 0.34): 39.1 ± 1.6 mPa·s
- viscosity (303.15 K, 101 kPa, x1 = 0.333): 33.1 ± 2.7 mPa·s
- viscosity (303.15 K, 101 kPa, x2 = 0.7): 35 ± 10 mPa·s and 37.15 ± 0.78 mPa·s
- viscosity (303.15 K, 101.3 kPa, x2 = 0.6675): 39.78 ± 1.7 mPa·s
- viscosity (303.15 K, 101.3 kPa, x2 = 0.7): 35.06 ± 0.4 mPa·s
- viscosity (303.15 K, 101.3 kPa, x2 = 0.7499): 25.72 ± 1.1 mPa·s
- viscosity (303.15 K, 101.3 kPa, x2 = 0.7999): 21.7 ± 0.9 mPa·s
- viscosity (303.15 K, 101.3 kPa, x2 = 0.8332): 19.36 ± 0.8 mPa·s
- viscosity (303.15 K, 101.3 kPa, x2 = 0.8571): 17.34 ± 0.72 mPa·s
- viscosity (308 K, 100 kPa, x1 = 0.333): 30.8 ± 2.5 mPa·s
- viscosity (308 K, 101 kPa, x1 = 0.3333): 45.7 ± 1 mPa·s
- viscosity (308.15 K, 100 kPa, x1 = 0.333): 22.76 ± 0.3 mPa·s
- viscosity (308.15 K, 100 kPa, x1 = 0.34): 32.42 ± 1.3 mPa·s
- viscosity (308.15 K, 101 kPa, x1 = 0.3333): 30.9 ± 1 mPa·s
- viscosity (308.15 K, 101.3 kPa, x2 = 0.6675): 33.15 ± 1.4 mPa·s
- viscosity (308.15 K, 101.3 kPa, x2 = 0.7): 29.02 ± 0.33 mPa·s
- viscosity (308.15 K, 101.3 kPa, x2 = 0.7499): 21.63 ± 0.91 mPa·s
- viscosity (308.15 K, 101.3 kPa, x2 = 0.7999): 18.29 ± 0.75 mPa·s
- viscosity (308.15 K, 101.3 kPa, x2 = 0.8332): 16.22 ± 0.67 mPa·s
- viscosity (308.15 K, 101.3 kPa, x2 = 0.8571): 14.52 ± 0.6 mPa·s
- viscosity (308.2 K, 101.3 kPa, x1 = 0.1247): 15.3 ± 0.6 mPa·s
- viscosity (308.2 K, 101.3 kPa, x1 = 0.1675): 17.4 ± 0.7 mPa·s
- viscosity (308.2 K, 101.3 kPa, x1 = 0.2): 18.6 ± 0.8 mPa·s
- viscosity (308.2 K, 101.3 kPa, x1 = 0.2513): 20.7 ± 0.8 mPa·s
- viscosity (313 K, 100 kPa, x1 = 0.333): 26 ± 2.1 mPa·s
- viscosity (313 K, 101 kPa, x1 = 0.333): 23 ± 2 mPa·s
- viscosity (313 K, 101 kPa, x1 = 0.3333): 40.7 ± 0.9 mPa·s
- viscosity (313.15 K, 100 kPa, x1 = 0.333): 19.32 ± 0.26 mPa·s and 41.27 ± 1.7 mPa·s
- viscosity (313.15 K, 100 kPa, x1 = 0.34): 27.44 ± 1.1 mPa·s
- viscosity (313.15 K, 101 kPa, x1 = 0.333): 26.3 ± 2.1 mPa·s
- viscosity (313.15 K, 101 kPa, x1 = 0.3333): 25.8 ± 0.8 mPa·s
- viscosity (313.15 K, 101 kPa, x2 = 0.7): 25.84 ± 0.53 mPa·s
- viscosity (313.15 K, 101.3 kPa, x2 = 0.6675): 27.77 ± 1.2 mPa·s
- viscosity (313.15 K, 101.3 kPa, x2 = 0.7): 24.22 ± 0.27 mPa·s
- viscosity (313.15 K, 101.3 kPa, x2 = 0.7499): 18.27 ± 0.77 mPa·s
- viscosity (313.15 K, 101.3 kPa, x2 = 0.7999): 15.52 ± 0.64 mPa·s
- viscosity (313.15 K, 101.3 kPa, x2 = 0.8332): 13.72 ± 0.57 mPa·s
- viscosity (313.15 K, 101.3 kPa, x2 = 0.8571): 12.3 ± 0.51 mPa·s
- viscosity (318 K, 100 kPa, x1 = 0.333): 21.6 ± 1.7 mPa·s
- viscosity (318 K, 101 kPa, x1 = 0.3333): 36.4 ± 0.8 mPa·s
- viscosity (318.15 K, 100 kPa, x1 = 0.333): 16.57 ± 0.22 mPa·s
- viscosity (318.15 K, 100 kPa, x1 = 0.34): 23.03 ± 0.93 mPa·s
- viscosity (318.15 K, 101 kPa, x1 = 0.2): 10.5 ± 0.4 mPa·s
- viscosity (318.15 K, 101 kPa, x1 = 0.333): 15.6 ± 0.7 mPa·s
- viscosity (318.15 K, 101 kPa, x1 = 0.3333): 21.9 ± 0.7 mPa·s
- viscosity (318.15 K, 101.3 kPa, x2 = 0.6675): 23.61 ± 0.98 mPa·s
- viscosity (318.15 K, 101.3 kPa, x2 = 0.7): 20.47 ± 0.23 mPa·s
- viscosity (318.15 K, 101.3 kPa, x2 = 0.7499): 15.68 ± 0.66 mPa·s
- viscosity (318.15 K, 101.3 kPa, x2 = 0.7999): 13.3 ± 0.55 mPa·s
- viscosity (318.15 K, 101.3 kPa, x2 = 0.8332): 11.67 ± 0.48 mPa·s
- viscosity (318.15 K, 101.3 kPa, x2 = 0.8571): 10.51 ± 0.44 mPa·s
- viscosity (318.2 K, 101.3 kPa, x1 = 0.1247): 11.4 ± 0.5 mPa·s
- viscosity (318.2 K, 101.3 kPa, x1 = 0.1675): 13.1 ± 0.5 mPa·s
- viscosity (318.2 K, 101.3 kPa, x1 = 0.2): 14.2 ± 0.6 mPa·s
- viscosity (318.2 K, 101.3 kPa, x1 = 0.2513): 16.3 ± 0.7 mPa·s
- viscosity (323 K, 100 kPa, x1 = 0.333): 18.8 ± 1.5 mPa·s
- viscosity (323 K, 101 kPa, x1 = 0.333): 16 ± 1 mPa·s
- viscosity (323 K, 101 kPa, x1 = 0.3333): 32.8 ± 0.7 mPa·s
- viscosity (323.15 K, 100 kPa, x1 = 0.333): 14.33 ± 0.19 mPa·s and 33.33 ± 1.4 mPa·s
- viscosity (323.15 K, 101 kPa, x1 = 0.333): 21.2 ± 1.7 mPa·s
- viscosity (323.15 K, 101 kPa, x1 = 0.3333): 18.8 ± 0.6 mPa·s
- viscosity (323.15 K, 101.3 kPa, x2 = 0.6675): 20.3 ± 0.84 mPa·s
- viscosity (323.15 K, 101.3 kPa, x2 = 0.7): 17.41 ± 0.2 mPa·s
- viscosity (323.15 K, 101.3 kPa, x2 = 0.7499): 13.57 ± 0.57 mPa·s
- viscosity (323.15 K, 101.3 kPa, x2 = 0.7999): 11.5 ± 0.48 mPa·s
- viscosity (323.15 K, 101.3 kPa, x2 = 0.8332): 9.98 ± 0.41 mPa·s
- viscosity (323.15 K, 101.3 kPa, x2 = 0.8571): 9.07 ± 0.38 mPa·s
